# Experimental data: patent US20040241088A1, “Method for evaluating the efficacy of certain cancer treatments” (Georgetown University, priority 2003, published 2004)
# Legend:
# [1] = test system: 17 kDa fragment of caspase 3; test: 17 kDa fragment of caspase 3 in PANC-1 cells in vitro (Western); type: cell-based, human; settings: 9 hours, Gemzar 0.8 μM, ODN 1 μM
# Description: A. To detect the presence of the 17 kDa active caspase 3 fragment in cell cultures the following procedure was used in subsequent Examples to isolate total protein from both living and dead floating cells. The medium from the cell culture vessel was removed and reserved.
# To lyse the cells, resuspend the cell pellet in 150 μl-200 μl RIPA buffer (with freshly prepared inhibitors) per 3×10^6 cells. RIPA buffer is 1×PBS, 1% NP40, 0.5% sodium deoxycholate, 0.1% SDS (this may be made in large volumes). Add inhibitors at time of use from the following stock solutions:
# In a further specific embodiment of this invention, it was determined that the cleaved 17 kDa subunit can be detected in tumor and/or blood as a means of verifying the efficacy of therapy with antisense (AS) HER-2, i.e. that the apoptotic pathway is induced by AS HER-2 treatment. […]
# Also evaluated in vitro was the induction of the 17 kDa fragment by the combination of the TfRscFv-LipA-AS HER-2 plus the chemotherapeutic agent Gemzar® (gemcitabine).
# [2] = test system: components of the PI3K/AKT pathway and apoptosis; test: Western analysis of signal transduction and apoptosis proteins in PANC-1 cells; type: cell-based, human
# Text: (§1) Treatment of Pancreatic Cancer (PanCa) with the tumor targeting TfRscFv-LipA-AS HER-2 complex can down-regulate HER-2 expression (even when not overexpressed), thus negatively affecting cell growth/survival and positively enhancing apoptotic pathways leading to increased tumor cell killing.
# The phosphorothioate sequence specific AS HER-2, complementary to the initiation codon region (5′-TCC ATG GTG CTC ACT-3′), and the control, non-sequence specific SC (5′-CTA GCC ATG CTT GTC-3′) ODNs were synthesized and purified by reverse phase HPLC by Ransom Hill Biosciences (Ramona, Calif.). […] PANC-1 or COLO 357 cells were seeded/in a six well plate and transfected 24 hours later with the TfRscFv-LipA complex carrying 1 μM (for PANC-1) or 0.5 μM (for COLO 357) AS HER-2 or SC HER-2 ODN (negative control). The cells were transfected with either oligo alone or, to look for a synergistic effect, in combination with gemcitabine (Gemzar®). At the indicated times, the cells were harvested, lysed in RIPA buffer, protein determined, run (60 ug total protein/lane) on a 4-20% gradient polyacrylamide/SDS gel and transferred to nitrocellulose for Western analysis as described in Examples 1, 3 and 4. To detect HER-protein expression the membranes were probed with the anti-human HER-2/Neu (C-18) rabbit polyclonal Ab (Santa Cruz Biotechnology) and the signal detected by ECL (Amersham). Change in protein expression as compared to untreated cells was also ascertained for total and/or phosphorylated Akt (Ser 473), a central component in the PI3K pathway (using an anti-Human polyclonal Ab, Cell Signaling Technology),phosphorylated BAD (Ser 136), an important factor in regulation of apoptosis (using an anti-human rabbit polyclonal antibody, Cell Signaling Technology), as well as cleaved caspase 3 (Asp 175) (using the rabbit polyclonal antibody, specific for the 17 kDa subunit, Cell Signaling Technology) and PARP/cleaved PARP (poly ADP ribopolymerase, another marker of apoptosis) using an anti-human rabbit polyclonal antibody, (Cell Signaling Technology) both downstream indicators of apoptosis.
# [3] = test system: components of the PI3K/AKT pathway and apoptosis; test: Western analysis of signal transduction and apoptosis proteins in COLO357 cells; type: cell-based; settings: 8 hrs post-transfection
# Text: as §1
# The phosphorothioate sequence specific AS HER-2, complementary to the initiation codon region (5′-TCC ATG GTG CTC ACT-3′), and the control, non-sequence specific SC (5′-CTA GCC ATG CTT GTC-3′) ODNs were synthesized and purified by reverse phase HPLC by Ransom Hill Biosciences (Ramona, Calif.). […] PANC-1 or COLO 357 cells were seeded/in a six well plate and transfected 24 hours later with the TfRscFv-LipA complex carrying 1 μM (for PANC-1) or 0.5 μM (for COLO 357) AS HER-2 or SC HER-2 ODN (negative control). The cells were transfected with either oligo alone or, to look for a synergistic effect, in combination with gemcitabine (Gemzar®). At the indicated times, the cells were harvested, lysed in RIPA buffer, protein determined, run (60 ug total protein/lane) on a 4-20% gradient polyacrylamide/SDS gel and transferred to nitrocellulose for Western analysis as described in Examples 1, 3 and 4. To detect HER-protein expression the membranes were probed with the anti-human HER-2/Neu (C-18) rabbit polyclonal Ab (Santa Cruz Biotechnology) and the signal detected by ECL (Amersham). […]
# [4] = test system: 17 kDa cleaved caspase 3 fragment; test: Tumor-specific localization of the 17 kDa fragment in tumor, liver and lung of PANC-1 xenograft mice; type: in vivo; settings: PANC-1 tumor; ODN 10 mg/kg i.v. daily for six days; Gemzar 60 mg/kg i.p. x3; 24 hours after last injection
# Description: PANC-1 tumors were induced by implantation of <1 mm^3 tumor sections from serially passaged PANC-1 xenograft tumors into 4-6 week old female nude mice. When the tumors reached approximately 100-200 mm^3 the TfRscFv-LipA-AS HER-2 complex was i.v. injected into the tail vein daily for six days. The dose of ODN (AS or SC) administered per mouse was 10 mg/kg/injection. For comparison to standard therapy, a separate animal received chemotherapeutic agent Gemzar® (i.p.) only (60 mg/kg/injection) every other day to a total of three injections. In addition, one mouse received the combination of TfRscFv-LipA-AS HER-2 and Gemzar® at the above dose and schedule, and, as a control, one received the combination of complex carrying SC ODN and Gemzar® at the above dose and schedule. All mice were sacrificed 24 hours after the last injection and tumor, liver and lung were harvested as in Example 1. To assess tumor specific targeting in this model HER-2 and the 17 kDa cleaved caspase 3 fragment expression in the tissues was examined by Western Blot analysis Examples 3 and 4. The effect of TfRscFv-LipA-AS HER-2 on induction of the 17 kDa fragment in tumor and tissue samples also screened for HER-2 levels was examined.
# PANC-1 xenograft tumors = test: In vivo chemosensitization: growth of subcutaneous PANC-1 xenograft tumors; parameters: species or system mice; settings: complex i.v. three times per week, ODN 9 mg/kg (18 injections); Gemzar i.p. twice weekly 60 mg/kg (12 injections)
# Description: The efficacy of the TfRscFv-LipA-AS HER-2 in treating PanCa in vivo was assessed using the subcutaneous PANC-1 xenograft mouse model. Athymic nude mice (5-9 mice/group with two tumors/mouse) bearing subcutaneous xenograft tumors of ˜50 mm^3 were treated three times per week with the TfRscFv-LipA-AS HER-2 complex containing ODN at 9 mg/kg/injection. As controls one group of animals received Gemzar® alone, the TfRscFv-LipA-AS HER-2 alone, or the combination of Gemzar® and the complex carrying the SC ODN. Gemzar® was given I.P. twice weekly at 60 mg/kg. The animals received a total of 18 i.v. injections of complex and 12 of Gemzar®.
structure (smiles),measurement,setting,value
"Nc1ccn([C@@H]2O[C@H](CO)[C@@H](O)C2(F)F)c(=O)n1 [Gemzar®, gemcitabine]",expression of 17 kDa fragment,[1],did not result in the expression of this fragment above background levels
same,cleaved caspase 3 (appearance of the 17 kDa protein),[2]; 8 hours post-transfection,not in those cells
same,cleaved PARP,[2]; 16 hours post-transfection,evident
same,cleaved caspase 3 (17 kDa fragment),[2]; 16 hours post-transfection,evident
same,cleaved PARP,[3],little or no evidence
same,cleaved caspase 3 (17 kDa subunit),[3],little or no evidence
same,induction of the 17 kDa fragment in the tumor,[4],not evident
same,tumor growth,PANC-1 xenograft tumors,only minimal effect
